The source made the active and inactive calls. The calls are words filed in the database; no cut-off is given here.

Assay type in all cases: functional
Experiment [1] deals with Oryctolagus cuniculus. Briefly: Ocular hypotensive activity in New Zealand albino rabbit eye assessed as reduction in hypertonic saline-induced intraocular pressure at 1% administered as eye drop measured at 4 hrs post administration by applanation tonometry.
In experiment [2] the test system is Oryctolagus cuniculus. Briefly: Ocular hypotensive activity in New Zealand albino rabbit eye assessed as reduction in hypertonic saline-induced intraocular pressure at 1% administered as eye drop measured at 60 mins post administration by applanation tonometry.
Experiment [3] deals with Oryctolagus cuniculus. Briefly: Ocular hypotensive activity in New Zealand albino rabbit eye assessed as reduction in hypertonic saline-induced intraocular pressure at 2% administered as eye drop measured at 60 mins post administration by applanation tonometry.

For `Cc1ncc(-c2ccc(S(N)(=O)=O)cc2)o1`, the outcome in experiment [1] and in experiment [2] was Active.
As for `NS(=O)(=O)c1ccc(-c2cnc(C(=O)N3CCOCC3)o2)s1`, the outcome in experiment [1] and in experiment [2] was Active.
In the case of `CCN[C@H]1C[C@H](C)S(=O)(=O)c2sc(S(N)(=O)=O)cc21`, the result in experiment [3] was Active.

Source of the values: ChEMBL document CHEMBL4043115, “1,3-Oxazole-based selective picomolar inhibitors of cytosolic human carbonic anhydrase II alleviate ocular hypertension in rabbits: Potency is supported by X-ray crystallography of two leads” (Bioorg Med Chem, 2017).
